SMILES strings stand for the structures.

15 compounds from Sander's compilation of Henry's law constants (doi:10.1016/s0378-3812(99)00193-4) can be followed below.

This data set can be described thus: Henry solubility constant Hcp at 298.15 K (mol/(m3 Pa)). To be noted: reference: Ryu and Park (1999).
Take `Cc1ccc(C)cc1` [1,4-dimethylbenzene]: the “Henry solubility constant Hcp” value amounted to 0.0014.
In the case of `c1ccccc1` [benzene], the “Henry solubility constant Hcp” value came out at 0.0017.
For the compound `CCCCc1ccccc1` [butylbenzene], the “Henry solubility constant Hcp” value was 0.00074.
Regarding `Clc1ccccc1` [chlorobenzene], the “Henry solubility constant Hcp” value stood at 0.0019.
The result for `ClCCl` [dichloromethane] reads 0.0041; that for `CCc1ccccc1` [ethylbenzene], 0.0011.
On to `CCCCCCC` [heptane], for which the “Henry solubility constant Hcp” value is 4.5e-06.
Under `CCCCCC` [hexane] stands 6.1e-06; under `Cc1ccccc1` [methylbenzene], 0.0015.
Take `CCCCCCCCC` [nonane]: the “Henry solubility constant Hcp” value stood at 2.2e-06.
Under `CCCCCCCC` [octane] stands 3.4e-06; under `CCCCCc1ccccc1` [pentylbenzene], 0.00061.
Under `ClC(Cl)=C(Cl)Cl` [tetrachloroethene] stands 0.00053; under `ClC(Cl)(Cl)Cl` [tetrachloromethane], 0.00038; under `ClC=C(Cl)Cl` [trichloroethene], 0.00095.
